Reference: ChEMBL document CHEMBL1201862, “PubChem BioAssay data set” (2004)
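1) Cells in 96-well plates. 2) Compound, 48 h, 5 concentrations. 3) Linear interpolation between surrounding doses. 4) Unreached endpoint = highest concentration. GI50 = concentration required for 50% inhibition of growth.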 Calls of active or inactive are those of the source. No stated cut-off is given here; in the data, active = GI50 up to about 1.1 µM and inactive = higher.

How the values were obtained:
Test in all cases: NCI tumour cell line growth inhibition, 48 h
HOP-92 = test system: HOP-92
KM12 = test system: KM12
UACC-257 = test system: UACC-257
OVCAR-4 = test system: OVCAR-4
MOLT-4 = test system: MOLT-4
UO-31 = test system: UO-31
HOP-62 = test system: HOP-62
NCI-H460 = test system: NCI-H460
A498 = test system: A498
Malme-3M = test system: Malme-3M
HCT-116 = test system: HCT-116
EKVX = test system: EKVX
MDA-MB-231 = test system: MDA-MB-231
HL-60 = test system: HL-60
SK-OV-3 = test system: SK-OV-3
RPMI-8226 = test system: RPMI-8226
MDA-MB-435 = test system: MDA-MB-435
DU-145 = test system: DU-145
Hs-578T = test system: Hs-578T

| Structure (SMILES) | GI50 (HOP-92) | GI50 (KM12) | GI50 (UACC-257) | GI50 (OVCAR-4) | GI50 (MOLT-4) | GI50 (UO-31) | GI50 (HOP-62) | GI50 (NCI-H460) | GI50 (A498) | GI50 (Malme-3M) | GI50 (HCT-116) | GI50 (EKVX) | GI50 (MDA-MB-231) | GI50 (HL-60) | GI50 (SK-OV-3) | GI50 (RPMI-8226) | GI50 (MDA-MB-435) | GI50 (DU-145) | GI50 (Hs-578T) |
| --- | --- | --- | --- | --- | --- | --- | --- | --- | --- | --- | --- | --- | --- | --- | --- | --- | --- | --- | --- |
| N#Cc1nc2ccccc2nc1N1CCN(c2ccc([N+](=O)[O-])cc2)CC1 | > 100 µM (inactive) | > 100 µM (inactive) | > 100 µM (inactive) | > 100 µM (inactive) | 0.106 µM (active) | > 100 µM (inactive) | > 100 µM (inactive) | > 100 µM (inactive) | > 100 µM (inactive) | > 100 µM (inactive) | > 100 µM (inactive) | > 100 µM (inactive) | > 100 µM (inactive) | > 100 µM (inactive) | > 100 µM (inactive) | > 100 µM (inactive) | > 100 µM (inactive) | > 100 µM (inactive) | > 100 µM (inactive) |
| CCN(CC)c1ccc(/C=C(\C#N)c2nc(N)nc(N3N=C(C)CC3(C)C)n2)cc1 | 6.97 µM (inactive) | 13.1 µM (inactive) | 45.2 µM (inactive) | 11.6 µM (inactive) | 10.7 µM (inactive) | 22.4 µM (inactive) | 11.1 µM (inactive) | 18.3 µM (inactive) | 16.2 µM (inactive) | 18.2 µM (inactive) | 15.9 µM (inactive) | 24.4 µM (inactive) | 13.6 µM (inactive) | 43.7 µM (inactive) | 6.61 µM (inactive) | 32 µM (inactive) | 21.1 µM (inactive) | 9.64 µM (inactive) | 2.4 µM (inactive) |
| CCOC(=O)c1cnc2oc3ccc(O)cc3c2c1C | > 100 µM (inactive) |  | > 100 µM (inactive) | 33.7 µM (inactive) | 47.4 µM (inactive) |  |  | > 100 µM (inactive) | 98.2 µM (inactive) | 29.9 µM (inactive) | > 100 µM (inactive) | 35 µM (inactive) | > 100 µM (inactive) | > 100 µM (inactive) | 53.6 µM (inactive) | > 100 µM (inactive) | > 100 µM (inactive) | > 100 µM (inactive) | 35.2 µM (inactive) |
| CCCCCC1CC=CC(=O)O1 (stereo unspecified) | 1.2 µM (inactive) | 4.39 µM (inactive) | 14.1 µM (inactive) | 1.18 µM (inactive) | 2.25 µM (inactive) | 8.89 µM (inactive) | 4.36 µM (inactive) | 11 µM (inactive) | 26.1 µM (inactive) | 0.933 µM (active) | 2.04 µM (inactive) | 3.24 µM (inactive) | 10.6 µM (inactive) | 4.93 µM (inactive) | 7.53 µM (inactive) | 1.91 µM (inactive) | 5.43 µM (inactive) | 17.4 µM (inactive) | 18 µM (inactive) |
| O=C1O[C@H]2[C@@H]3OC(=O)c4cc(O)c(O)c(O)c4-c4c(cc(O)c(O)c4O)C(=O)OC[C@H]2O[C@@H](OC(=O)c2cc(O)c(O)c(O)c2)[C@@H]3OC(=O)c2cc(O)c(O)c3c2[C@@H]2C1=CC(=O)C(O)(O)C2(O)O3 (stereo partly specified) | 27.7 µM (inactive) | 22.1 µM (inactive) | 51.6 µM (inactive) | 15.2 µM (inactive) | 25.9 µM (inactive) | 21.7 µM (inactive) | 38.8 µM (inactive) | 33 µM (inactive) | 82.8 µM (inactive) | 84.9 µM (inactive) | 16.9 µM (inactive) | 16.1 µM (inactive) | 19.8 µM (inactive) | 20.7 µM (inactive) | 11 µM (inactive) | 38.3 µM (inactive) | 16.7 µM (inactive) | 47 µM (inactive) | 40.4 µM (inactive) |
| COC(=O)[C@@H]1C[C@H]([Se]c2ccccc2)CN1S(=O)(=O)c1ccc(C)cc1 | > 100 µM (inactive) | 68.9 µM (inactive) | > 100 µM (inactive) | 42.8 µM (inactive) | 35.7 µM (inactive) | 51.9 µM (inactive) | > 100 µM (inactive) | > 100 µM (inactive) | > 100 µM (inactive) | > 100 µM (inactive) | 67.3 µM (inactive) | > 100 µM (inactive) | > 100 µM (inactive) | 36.3 µM (inactive) | > 100 µM (inactive) | 59.4 µM (inactive) | 47.1 µM (inactive) | > 100 µM (inactive) | 60.7 µM (inactive) |
